Data as given in patent publication US5352599A, “Co-enzyme-independent L-sorbosone dehydrogenase of gluconobacter oxydans: isolation, characterization, and cloning and autologus expression of the gene” (Hoffmann-La Roche Inc., priority 1988, dated 1994).

Columns and labels:
[1] = biological target: T1, membrane-bound L-sorbosone dehydrogenase from Gluconobacter oxydans IFO 12258, purified, coenzyme independent (Gluconacetobacter liquefaciens, UniProt Q44091); assay: L-sorbosone dehydrogenase enzyme assay (DCIP reduction at 600 nm, 25° C.); format: biochemical
T1 construct: endogenous in cells; host or cells: Gluconobacter oxydans IFO 12258 (enzyme isolated from the strain itself)
T1 sequence (Q44091 1-449): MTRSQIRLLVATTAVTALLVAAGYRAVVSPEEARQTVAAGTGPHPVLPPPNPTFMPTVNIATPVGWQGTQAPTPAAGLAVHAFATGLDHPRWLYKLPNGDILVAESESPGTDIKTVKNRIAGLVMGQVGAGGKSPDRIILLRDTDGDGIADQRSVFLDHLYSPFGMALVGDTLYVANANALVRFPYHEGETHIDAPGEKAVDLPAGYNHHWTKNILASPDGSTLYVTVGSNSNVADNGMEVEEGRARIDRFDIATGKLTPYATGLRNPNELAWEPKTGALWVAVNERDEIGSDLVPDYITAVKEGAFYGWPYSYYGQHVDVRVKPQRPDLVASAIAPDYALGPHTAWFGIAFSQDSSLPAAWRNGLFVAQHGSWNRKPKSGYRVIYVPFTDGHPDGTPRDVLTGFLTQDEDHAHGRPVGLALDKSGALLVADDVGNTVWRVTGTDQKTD
Procedure: (§1) Enzyme assay was performed at 25° C. by measuring the decrease of absorbance at 600nm of DCIP spectrophotometrically. One unit of enzyme activity was defined as the amount of enzyme which catalyzed the reduction of 1 μmole of DCIP per minute.
(§2) The extinction coefficient of DCIP at pH 7.0 was taken as 9.45mM^-1. The basal reaction mixture is shown below. The mixture was prepared just before the assay.
(§3) A cuvette with 1cm light path contained 0.4ml of basal mixture, 20μl of 10mM phenazine methosulphate, 10μl of enzyme solution and 20μl of 110mM L-sorbosone solution in a final volume of 0.45ml. A reference cuvette contains all components except the substrate. The reaction was initiated by the addition of the substrate. Enzyme activity was measured as the initial reduction rate of DCIP.

[2] = substrate: O=CC(=O)[C@@H](O)[C@H](O)[C@@H](O)CO; assay: as above; format: biochemical, Gluconobacter oxydans IFO 12258; conditions: other: pH7.0, purified enzyme, pH 7.0
Procedure: as §1, §2, §3

O=C(O)CI [ICH2 COOH, Monoiodoacetic acid]
inhibition of the enzyme (in words) [1]: moderately inhibited
inhibition at 10000 µM ([1]; read-out: Relative activity (%) in presence of inhibitor): 64.3%

[N-]=[N+]=[N-].[Na+] [NaN3]
Relative activity (%) in presence of inhibitor ([1]; inhibitor 25 mM, L-Sorbosone as the substrate, None = 100): 89.4%

B1: membrane-bound L-sorbosone dehydrogenase from Gluconobacter oxydans IFO 12258, purified, coenzyme independent (Gluconacetobacter liquefaciens) (protein)
chain: MTRSQIRLLVATTAVTALLVAAGYRAVVSPEEARQTVAAGTGPHPVLPPPNPTFMPTVNIATPVGWQGTQAPTPAAGLAVHAFATGLDHPRWLYKLPNGDILVAESESPGTDIKTVKNRIAGLVMGQVGAGGKSPDRIILLRDTDGDGIADQRSVFLDHLYSPFGMALVGDTLYVANANALVRFPYHEGETHIDAPGEKAVDLPAGYNHHWTKNILASPDGSTLYVTVGSNSNVADNGMEVEEGRARIDRFDIATGKLTPYATGLRNPNELAWEPKTGALWVAVNERDEIGSDLVPDYITAVKEGAFYGWPYSYYGQHVDVRVKPQRPDLVASAIAPDYALGPHTAWFGIAFSQDSSLPAAWRNGLFVAQHGSWNRKPKSGYRVIYVPFTDGHPDGTPRDVLTGFLTQDEDHAHGRPVGLALDKSGALLVADDVGNTVWRVTGTDQKTD
notes: endogenous in cells; host or cells: Gluconobacter oxydans IFO 12258 (enzyme isolated from the strain itself)
Km [2]: 16.7 mM
